Columns and labels:
Type in all cases: functional, Homo sapiens
SK-OV-3 = test: Concentration required for 50% inhibition of proliferation of ovarian cancer cell line, SKOV3 with respect to paclitexal was tested in vitro after 72 hr of incubation
MCF7 = test: Concentration required for 50% inhibition of proliferation of breast cancer cell line, MCF-7 with respect to paclitaxel was tested in vitro after 72 hr of incubation
A549 = test: Concentration required for 50% inhibition of proliferation of lung cancer cell line, A549 with respect to paclitaxel was tested in vitro after 72 hr of incubation

| Compound | Ratio (SK-OV-3) | Ratio (MCF7) | Ratio (A549) |
| --- | --- | --- | --- |
| CC(=O)O[C@H]1C(=O)[C@@]2(C)[C@H]([C@H](OC(=O)c3ccccc3)[C@]3(O)C[C@H](OC(=O)[C@H](O)[C@@H](NC(=O)c4ccccc4)c4ccccc4)C(C)=C1C3(C)C)[C@]1(OC(C)=O)CO[C@@H]1C[C@@H]2O [PACLITAXEL] | 1 | 1 | 1 |
| CC(=O)O[C@H]1[C@@H]2[C@@H]3CN(C(C)=O)[C@@H]3CC[C@@]2(C)[C@@H](OC(C)=O)[C@H](OC(C)=O)C2=C(C)[C@@H](OC(=O)[C@H](O)[C@@H](NC(=O)c3ccccc3)c3ccccc3)C[C@@H]1C2(C)C | 5.8 | 3.6 | 2.9 |
| CC(=O)O[C@H]1[C@@H]2[C@@H]3CN(C(=O)C(F)(F)F)[C@@H]3CC[C@@]2(C)[C@@H](OC(C)=O)[C@H](OC(C)=O)C2=C(C)[C@@H](OC(=O)[C@H](O)[C@@H](NC(=O)c3ccccc3)c3ccccc3)C[C@@H]1C2(C)C | 4.7 | 3.8 | 3.2 |
| COc1ccc(OC2O[C@@H](C(=O)O[C@H]3C[C@H]4[C@@H](OC(C)=O)[C@@H]5[C@@H]6CN[C@@H]6CC[C@@]5(C)[C@@H](OC(C)=O)[C@H](OC(C)=O)C(=C3C)C4(C)C)[C@H](c3ccccc3)N2C(=O)c2ccccc2)cc1 (stereo partly drawn) | 9.3 | 8.6 | 6.8 |
| COc1ccc(OC2O[C@@H](C(=O)O[C@H]3C[C@H]4[C@@H](OC(C)=O)[C@@H]5[C@@H]6CN(C(C)=O)[C@@H]6CC[C@@]5(C)[C@@H](OC(C)=O)[C@H](OC(C)=O)C(=C3C)C4(C)C)[C@H](c3ccccc3)N2C(=O)c2ccccc2)cc1 (stereo partly drawn) | 10.2 | 9.3 | 6.9 |
| CC(=O)O[C@H]1[C@@H]2[C@@H]3CN[C@@H]3CC[C@@]2(C)[C@@H](OC(C)=O)[C@H](OC(C)=O)C2=C(C)[C@@H](OC(=O)[C@H](O)[C@@H](NC(=O)c3ccccc3)c3ccccc3)C[C@@H]1C2(C)C | 4.6 | 4.9 | 4.5 |

— ChEMBL document CHEMBL1136825, “Synthesis and biological evaluation of 4-deacetoxy-1,7-dideoxy azetidine paclitaxel analogues” (2003)
